Like-named read-outs stand apart in the source and are kept apart here.
Experiments:
[1] = Pharmacokinetic test in mice; format: in vivo; details: male, ICR, mouse, po, administration i.g. (10 mg/kg), plasma
Method: Test objective: In this experiment, a single dose of test compounds was administered to ICR mice intravenously and intragastrically, the concentrations of the test compounds in plasma of mice were measured, and the pharmacokinetic characteristics and bioavailability of the test compounds in mice were evaluated.
Experimental animals: male ICR mice, 20-25 g, purchased from BEIJING HFK BIOSCIENCE CO., LTD. with the laboratory animal production license number of SCXK (JING) 2019-0008; or purchased from CHENGDU DDOSSY EXPERIMENTAL ANIMALS CO., LTD. (SCXK (CHUAN) 2020-030); or purchased from HUNAN SJA LABORATORY ANIMAL CO., LTD. (SCXK (XIANG) 2019-0004).
Experimental method: on the day of the experiment, ICR mice were randomly grouped according to their body weights. The mice were fasted with water available for 12 to 14 hours one day before the administration, and were fed 4 hours after the administration.
Sampling: before and after the administration, blood was taken from the orbits of the mice under isoflurane anesthesia, and placed in an EDTAK2 centrifuge tube. Centrifugation was carried out at 5000 rpm at 4° C. for 10 min, and the plasma was collected.
Time points for plasma collection in G1&G2 groups: 0, 5 min, 15 min, 30 min, 1h, 2h, 4h, 6h, 8h, and 24 h; • time points for plasma collection in G3 group: 0, 5 min, 15 min, 30 min, 1 h, 2 h, 4 h, 6h, 8h, and 24 h; • before analysis and detection, all samples were stored at −80° C. The samples were analyzed quantitatively by LC-MS/MS.

[2] = system: NCI-H1975 (EGFR-L858R-T790M) cells; experiment: Inhibitory activity on proliferation of NCI-H1975 (EGFR-L858R-T790M) cells (CTG, 72 h); format: cell-based; details: Homo sapiens
In short: (§1)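 IC50 values come from S-shaped dose-survival fits of CTG signal expressed as % of vehicle. Compound exposure lasted 72 h at 37 °C with 0.1% DMSO; seeding was 3000 A431 cells/well in DMEM+10% FBS and 1000 NCI-H1975 cells/well in RPMI1640+10% FBS.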

A431 (EGFR-WT) cells = experiment: Inhibitory activity on proliferation of A431 (EGFR-WT) cells (CTG, 72 h); format: cell-based; details: Homo sapiens, A-431
In short: as §1

[3] = read-out: IC50 (value in brackets)

SMILES	AUC(0-t) [1]	IC50 ([2]; read-out: IC50 (class symbol))	IC50 [2, 3]	IC50 (A431 (EGFR-WT) cells)	AUC [1]	half-life [1]
COc1cc(N2CCC(N3CCN(CC4CCN(c5ccc6c(c5)C(=O)N(C5CCC(=O)NC5=O)C6=O)CC4)CC3)CC2)c(-c2cnn(C)c2)cc1Nc1ncc(Br)c(Nc2ccc(C3CC3)cc2P(C)(C)=O)n1 (centres unmarked) [Compound 55, 5-(4-((4-(1-(4-((5-bromo-4-((4-cyclopropyl-2-(dimethylphosphoryl)phenyl)amino)pyrimidin-2-yl)amino)-5-methoxy-2-(1-methyl-1H-pyrazol-4-yl)phenyl)piperidin-4-yl)piperazin-1-yl)methyl)piperidin-1-yl)-2-(2,6-dioxopiperidin-3-yl)isoindoline-1,3-dione]	19900 ng·h/mL	< 100 nM	30 nM	≥ 10000 nM	–	–
COc1cc(N2CCN(c3ccc4c(c3)C(=O)N(C3CCC(=O)NC3=O)C4=O)CC2)c(-c2cnn(C)c2)cc1Nc1ncc(Br)c(Nc2ccc(-c3ccccc3)cc2P(C)(C)=O)n1 (centres unmarked) [Compound 80, 5-(4-(4-((5-bromo-4-((3-(dimethylphosphoryl)-[1,1′-biphenyl]-4-yl)amino)pyrimidin-2-yl)amino)-5-methoxy-2-(1-methyl-1H-pyrazol-4-yl)phenyl)piperazin-1-yl)-2-(2,6-dioxopiperidin-3-yl)isoindoline-1,3-dione]	–	100 to 500 nM	129 nM	≥ 10000 nM	81900 ng·h/mL	10.4 h
COc1cc(N2CCC(N3CCN(C4CC5(CCN(c6ccc7c(c6)C(=O)N(C6CCC(=O)NC6=O)C7=O)CC5)C4)CC3)CC2)c(-c2cnn(C)c2)cc1Nc1ncc(Br)c(Nc2ccc(-c3ccccc3)cc2P(C)(C)=O)n1 (centres unmarked) [Compound 63, 5-(2-(4-(1-(4-((5-bromo-4-((3-(dimethylphosphoryl)-[1,1′-biphenyl]-4-yl)amino)pyrimidin-2-yl)amino)-5-methoxy-2-(1-methyl-1H-pyrazol-4-yl)phenyl)piperidin-4-yl)piperazin-1-yl)-7-azaspiro[3.5]nonan-7-yl)-2-(2,6-dioxopiperidin-3-yl)isoindoline-1,3-dione]	14700 ng·h/mL	< 100 nM	90 nM	≥ 10000 nM	–	–
COc1cc(N2CCC(N3CCN(CC4CCN(c5cc6c(cc5F)C(=O)N(C5CCC(=O)NC5=O)C6=O)CC4)CC3)CC2)c(-c2cnn(C)c2)cc1Nc1ncc(Br)c(Nc2ccc(-c3ccccc3)cc2P(C)(C)=O)n1 (centres unmarked) [Compound 87, 5-(4-((4-(1-(4-((5-bromo-4-((3-(dimethylphosphoryl)-[1,1′-biphenyl]-4-yl)amino)pyrimidin-2-yl)amino)-5-methoxy-2-(1-methyl-1H-pyrazol-4-yl)phenyl)piperidin-4-yl)piperazin-1-yl)methyl)piperidin-1-yl)-2-(2,6-dioxopiperidin-3-yl)-6-fluoroisoindoline-1,3-dione]	2340 ng·h/mL	< 100 nM	45 nM	≥ 10000 nM	–	–
COc1cc(N2CCC3(CCN(c4ccc5c(c4)C(=O)N(C4CCC(=O)NC4=O)C5=O)CC3)CC2)c(-c2cnn(C)c2)cc1Nc1ncc(Br)c(Nc2ccc(F)cc2P(C)(C)=O)n1 (centres unmarked) [Compound 163, 5-(9-(4-((5-bromo-4-((2-(dimethylphosphoryl)-4-fluorophenyl)amino)pyrimidin-2-yl)amino)-5-methoxy-2-(1-methyl-1H-pyrazol-4-yl)phenyl)-3,9-diazaspiro[5.5]undecan-3-yl)-2-(2,6-dioxopiperidin-3-yl)isoindoline-1,3-dione]	–	< 100 nM	76 nM	≥ 10000 nM	93100 ng·h/mL	6.68 h
COc1cc(N2CCC(N3CCN(CC4CCN(c5ccc6c(c5)C(=O)N(C5CCC(=O)NC5=O)C6=O)CC4)CC3)CC2)c(-c2cnn(C)c2)cc1Nc1ncc(Cl)c(Nc2ccc3ccccc3c2P(C)(C)=O)n1 (centres unmarked) [Compound 72, 5-(4-((4-(1-(4-((5-chloro-4-((1-(dimethylphosphoryl)naphthalen-2-yl)amino)pyrimidin-2-yl)amino)-5-methoxy-2-(1-methyl-1H-pyrazol-4-yl)phenyl)piperidin-4-yl)piperazin-1-yl)methyl)piperidin-1-yl)-2-(2,6-dioxopiperidin-3-yl)isoindoline-1,3-dione]	16400 ng·h/mL	< 100 nM	31 nM	≥ 10000 nM	–	–
